This is an account of results in patent US9512117B2 (priority 2010, dated 2016).

The nature of series [1]: logP by HPLC on reversed-phase columns (C 18), EEC directive 79/831 Annex V.A8. It counts as physicochemical. To be noted: LC-MS; for Log P [a] / chromatographic logP: acidic range, pH 2.7, 0.1% aqueous formic acid and acetonitrile; for Log P [b]: neutral range, pH 7.8, 0.001 molar aqueous ammonium hydrogencarbonate and acetonitrile; for chromatographic logP: reversed-phase HPLC column (C18), read-out: Log P [a]. As to the method:
The logP values were measured according to EEC directive 79/831 Annex V.A8 by HPLC (High Performance Liquid Chromatography) on reversed-phase columns (C 18), using the methods below:
^[a] The LC-MS determination in the acidic range is effected at pH 2.7 with 0.1% aqueous formic acid and acetonitrile (contains 0.1% formic acid) as eluents; linear gradient from 10% acetonitrile to 95% acetonitrile.
^[b] The LC-MS determination in the neutral range is effected at pH 7.8 using 0.001 molar aqueous ammonium hydrogencarbonate solution and acetonitrile as eluents; linear gradient from 10% acetonitrile to 95% acetonitrile.
The calibration is effected with unbranched alkan-2-ones (having 3 to 16 carbon atoms) with known logP values (logP values determined on the basis of the retention times by linear interpolation between two successive alkanones).

Series [2] has as its system Phytophthora infestans. It counts as in vivo. To be noted: young tomato plants, protective spray, 100 ppm active ingredient, evaluation 7 days after inoculation; 0% = control, 100% = no infection.
Series [3] concerns Plasmopara viticola. The series can be described thus: Plasmopara test (grapevine) / protective. It counts as in vivo. To be noted: young grapevine plants, protective spray, 10 ppm active ingredient, evaluation 6 days after inoculation; 0% = control, 100% = no infection. As to the method: Plasmopara Test (Grapevine)/Protective
• Solvent: 24.5 parts by weight of acetone • 24.5 parts by weight of dimethylacetamide • Emulsifier: 1 part by weight of alkylaryl polyglycol ether
To produce a suitable active ingredient formulation, 1 part by weight of active ingredient is mixed with the stated amounts of solvent and emulsifier, and the concentrate is diluted with water to the desired concentration.
To test for protective efficacy, young plants are sprayed with the active ingredient formulation at the stated application rate. After the spray coating has dried on, the plants are inoculated with an aqueous spore suspension of Plasmopara viticola and then remain in an incubation cabin at approx. 20° C. and 100% relative air humidity for 1 day. Subsequently, the plants are placed in a greenhouse at approx. 21° C. and approx. 90% air humidity for 4 days. The plants are then moistened and placed in an incubation cabin for 1 day.
Evaluation follows 6 days after the inoculation. 0% means an efficacy which corresponds to that of the control, whereas an efficacy of 100% means that no infection is observed.
In this test, the following inventive compounds show, at an active ingredient concentration of 10 ppm, an efficacy of 70% or more: […]

Structures are written as SMILES. Several values for one entry are separate records, joined by “and”; a condition that tells them apart may be missing. Equal entries are not always repeated.

As to `C#CCOc1cccc(F)c1C1CC(c2csc(C3CCN(C(=O)Cn4nc(C(F)(F)F)cc4C)CC3)n2)=NO1` (centres unmarked) [Ex. 12], in series [1], the “Log P [a]” value is 3.35[a]; and the “Log P [b]” value is 3.27[b]. Further, the Eff. % in series [2] was 75%. In series [3], this molecule had an Eff. % of 100%.

`Cc1cc(C(F)(F)F)nn1CC(=O)N1CCC(c2nc(C3=NOC(c4c(Cl)cccc4OC(=O)C4CC4)C3)cs2)CC1` (racemic) [Ex. 48]: in series [1], the “Log P [a]” value was 3.73[a]; and the “Log P [b]” value was 3.64[b]. In series [2], this molecule yielded an Eff. % of 70%. Besides, the Eff. % in series [3] worked out at 95%.

Take `C=CCOc1cccc(C2CC(c3csc(C4CCN(C(=O)Cn5nc(C(F)(F)F)cc5C)CC4)n3)=NO2)c1` (racemic) [Ex. 41]: in series [1], the “Log P [a]” value is 3.62[a]; and the “Log P [b]” value was 3.68[b];. Also, in series [2], the Eff. % was 98% and 97%. This molecule showed an Eff. % in series [3] of 78%.

As for `Cc1ccc(Cl)cc1NC(=O)N1CCC(c2nc(C3=NOC(c4ccccc4C=O)C3)cs2)CC1` (centres unmarked) [Ex. 3, N-(5-Chloro-2-methylphenyl)-4-{4-[5-(2-formylphenyl)-4,5-dihydro-1,2-oxazol-3-yl]-1,3-thiazol-2-yl}piperidine-1-carboxamide], the chromatographic logP in series [1] is 3.35. Also, the Eff. % in series [2] and in series [3] was 100% in each case.

As for `C=CCOc1cccc(Cl)c1C1CC(c2csc(C3CCN(C(=O)Nc4cc(C)ccc4C)CC3)n2)=NO1` (racemic) [Ex. 42], the “Log P [a]” value in series [1] is 3.98[a];. Moreover, the “Log P [b]” value in series [1] is 3.91[b]. The Eff. % in series [2] was found to be 94%; in series [3] it was 96%.

`Cc1cc(C(F)(F)F)nn1CC(=O)N1CCC(c2nc(C3=NOC(c4c(F)cccc4C=O)C3)cs2)CC1` (racemic) [Ex. 53]: the “Log P [a]” value in series [1] is 3.03[a];. In addition, the “Log P [b]” value in series [1] was 2.95[b]. Besides, the results for the Eff. % in series [2] and in series [3] were 98% and 100%, respectively.

With `C#CCOc1cccc(F)c1C1(C)CC(c2csc(C3CCN(C(=O)Cn4nc(C)cc4C(F)F)CC3)n2)=NO1` (racemic) [Ex. 37], in series [1], the “Log P [a]” value is 3.11[a]; and the “Log P [b]” value is 3.12[b];. The molecule further yielded an Eff. % in series [2] of 94%. For the same molecule, the Eff. % in series [3] is recorded as 96%.

Turning to `C=CCOc1cccc(Cl)c1C1CC(c2csc(C3CCN(C(=O)Cn4nc(C(F)(F)F)cc4C)CC3)n2)=NO1` (racemic) [Ex. 50], in series [1], the “Log P [a]” value was 3.94[a];. Besides, in series [1], the “Log P [b]” value was 3.83[b]. Moreover, the values for the Eff. % in series [2] and in series [3] were 70% and 100%, respectively.

Turning to `C=CCOc1cccc(Cl)c1C1CC(c2csc(C3CCN(C(=O)Nc4cc(Cl)ccc4C)CC3)n2)=NO1` (racemic) [Ex. 39], the “Log P [a]” value in series [1] was 4.21[a];. For the same molecule, in series [1], the “Log P [b]” value was 4.11[b]. Further, the Eff. % was 94% in series [2] and 100% in series [3].

With `C#CCOc1cccc(Cl)c1C1CC(c2csc(C3CCN(C(=O)Nc4cc(C)ccc4C)CC3)n2)=NO1` (racemic) [Ex. 38], in series [1], the “Log P [a]” value is 3.68[a];. Besides, in series [1], the “Log P [b]” value was 3.57[b]. Moreover, the Eff. % in series [2] was found to be 94%; in series [3], 100%.

Take `Cc1ccc(Cl)cc1NC(=O)N1CCC(c2nc(C3=NOC(c4cccc(C=O)c4)C3)cs2)CC1` (centres unmarked) [Ex. 2]: in series [1], the “Log P [a]” value is 3.05[a]. Also, the Eff. % in series [2] and in series [3] was 100% in each case.

Consider `Cc1cc(C(F)(F)F)nn1CC(=O)N1CCC(c2nc(C3=NOC(c4ccc(OC(=O)C5CC5)cc4)C3)cs2)CC1` (racemic) [Ex. 47], for which, in series [1], the “Log P [a]” value was 3.49[a]; and the “Log P [b]” value was 3.4[b]. This molecule yielded an Eff. % in series [2] of 100%. The molecule also had an Eff. % in series [3] of 86%.

In the case of `Cc1cc(C(F)(F)F)nn1CC(=O)N1CCC(c2nc(C3=NOC(c4cccc(OC(=O)C5CC5)c4)C3)cs2)CC1` (racemic) [Ex. 40], in series [1], the “Log P [a]” value was 3.53[a]; and the “Log P [b]” value was 3.47[b]. Further, the Eff. % in series [2] is given as 100%. Moreover, the Eff. % in series [3] is listed as 85%.

As to `C=CCOc1c(F)cccc1C1CC(c2csc(C3CCN(C(=O)Cn4nc(C(F)(F)F)cc4C)CC3)n2)=NO1` (racemic) [Ex. 52], the “Log P [a]” value in series [1] is 3.97[a];. In series [1], the “Log P [b]” value is 3.84[b]. Besides, the Eff. % amounted to 97% in series [2] and 98% in series [3].

`COCCOc1cccc(F)c1C1CC(c2csc(C3CCN(C(=O)Cn4nc(C(F)(F)F)cc4C)CC3)n2)=NO1` (racemic) [Ex. 49]: in series [1], the “Log P [a]” value was 3.28[a]; and the “Log P [b]” value was 3.17[b]. The molecule further yielded an Eff. % in series [2] of 90%. The same molecule had an Eff. % in series [3] of 100%.

With `C#CCOc1ccccc1C1CC(c2csc(C3CCN(C(=O)Nc4cc(C)ccc4C)CC3)n2)=NO1` (racemic) [Ex. 45], in series [1], the “Log P [a]” value is 3.43[a]; and the “Log P [b]” value was 3.41[b]. This molecule returned an Eff. % in series [2] of 100%. The Eff. % in series [3] came to 96%.

As for `Cc1cc(C(F)(F)F)nn1CC(=O)N1CCC(c2nc(C3=NOC(c4ccccc4C=O)C3)cs2)CC1` (centres unmarked) [Ex. 7, 2-{3-[2-(1-{[5-Methyl-3-(trifluoromethyl)-1H-pyrazol-1-yl]acetyl}piperidin-4-yl)-1,3-thiazol-4-yl]-4,5-dihydro-1,2-oxazol-5-yl}benzaldehyde], in series [1], the chromatographic logP worked out at 3.12. Moreover, the Eff. % in series [2] and in series [3] was 100% in each case.

In the case of `Cc1cc(C(F)(F)F)nn1CC(=O)N1CCC(c2nc(C3=NOC(c4cccc(F)c4OC(=O)C4CC4)C3)cs2)CC1` (racemic) [Ex. 54], in series [1], the “Log P [a]” value was 3.62[a]; and the “Log P [b]” value is 3.5[b]. In series [2], the Eff. % amounted to 94%. Also, the Eff. % in series [3] is reported as 91%.

As for `C#CCOc1ccccc1C1CC(c2csc(C3CCN(C(=O)Cn4nc(C(F)(F)F)cc4C)CC3)n2)=NO1` (centres unmarked) [Ex. 13], in series [1], the “Log P [a]” value is 3.47[a]; and the “Log P [b]” value is 3.37[b]. The molecule further showed an Eff. % in series [2] of 89%. The molecule further gave an Eff. % in series [3] of 100%.

For `C=CCOc1cccc(F)c1C1CC(c2csc(C3CCN(C(=O)Nc4cc(C)ccc4C)CC3)n2)=NO1` (centres unmarked) [Ex. 25], the “Log P [a]” value in series [1] was 3.64[a];. Further, in series [1], the “Log P [b]” value was 3.62[b]. For the same molecule, the Eff. % in series [2] and in series [3] was 100% throughout.

Consider `C#CCOc1cccc(Cl)c1C1CC(c2csc(C3CCN(C(=O)Cn4nc(C(F)(F)F)cc4C)CC3)n2)=NO1` (centres unmarked) [Ex. 11], for which, in series [1], the “Log P [a]” value is 3.62[a]; and the “Log P [b]” value is 3.53[b]. The molecule also showed an Eff. % in series [2] of 85%. Also, the Eff. % in series [3] was found to be 100%.

In the case of `C=CCOc1ccccc1C1CC(c2csc(C3CCN(C(=O)Cn4nc(C(F)(F)F)cc4C)CC3)n2)=NO1` (centres unmarked) [Ex. 30], in series [1], the “Log P [a]” value is 3.86[a]; and the “Log P [b]” value was 3.73[b]. This molecule had an Eff. % in series [2] of 97%. In series [3], the Eff. % was determined as 100%.

Regarding `Cc1cc(C(F)(F)F)nn1CC(=O)N1CCC(c2nc(C3=NOC(c4ccccc4OC(=O)C4CC4)C3)cs2)CC1` (racemic) [Ex. 56], in series [1], the “Log P [a]” value is 3.52[a]; and the “Log P [b]” value was 3.41[b]. The same molecule returned an Eff. % in series [2] of 89%. The molecule further registered an Eff. % in series [3] of 98%.

`CS(=O)(=O)Nc1ccccc1C1CC(c2csc(C3CCN(C(=O)Nc4cc(C(F)F)ccc4C(F)F)CC3)n2)=NO1` (centres unmarked) [Ex. 6, N-[2,5-Bis(difluoromethyl)phenyl]-4-[4-(5-{2-[(methylsulphonyl)amino]phenyl}-4,5-dihydro-1,2-oxazol-3-yl)-1,3-thiazol-2-yl]piperidine-1-carboxamide]: in series [1], the chromatographic logP turned out to be 2.72. Moreover, the Eff. % in series [2] was found to be 95%; in series [3], 98%.
